Laboratory results as given in US6635656B1, “Cytotoxic alkaloids halitulin” (Pharma Mar, S.A., priority 1998, dated 2003).
Values after ≈ are worked out from the molar mass of the structure shown. Where two headings read alike, the source gives them in different places.

Tests used:
[1] = system: HT-29 human colon carcinoma; test: Cytotoxicity screening against HT-29 cell culture; type: cell-based; settings: HT-29 cells, three days of incubation, Crystal Violet
Excerpt: (§1) Cell Cultures. Cells were maintained in logarithmic phase of growth in eagle's Minimum Essential Medium, with Earle's Balanced Salts, with […] L-glutamine, with non-essential amino acids, without sodium bicarbonate (EMEM/neaa); supplemented with 10% Fetal Calf Serum (FCS), 10^−2 M sodium bicarbonate and 0,1 g/l penicillin-G+streptomycin sulfate.
(§2) A simple screening procedure has been carried out to determine and compare the antitumor activity of these compounds, using an adapted form of the method described by Bergeron et al. (1984)(1). The antitumor cells employed have been P-388 (suspension culture of a lymphoid neoplasm from DBA/2 mouse), A0549 (monolayer culture of a human lung carcinoma), HT-29 (monolayer culture of a human colon carcinoma) and MEL-28 (monolayer culture of a human melanoma).
(§3) A-549, HT-29 and MEL-28 cells were seeded into 16 mm wells at 2×10^4 cells per well in 1 ml aliquots of MEM 10FCS containing the indicated concentration of drug. A separate set of cultures without drug was seeded as control growth to ensure that cells remained in exponential phase of growth. All determinations were carried out in duplicate. After three days of incubation at 37° C., 10% CO2 in a 98% humid atmosphere, the wells were stained with 0.1% Crystal Violet. An approximately IC50 was determined by comparing the growth in wells with drug to the growth in wells control.

[2] = system: MEL-28 human melanoma; test: Cytotoxicity screening against MEL-28 cell culture; type: cell-based; settings: SK-MEL-28, 72 h, MEL-28 cells, three days of incubation, Crystal Violet
Excerpt: as §1, §2, §3

[3] = Stability observations (light, air, handling); type: physicochemical; settings: N-oxides, then o-quinolinoquinone, form
Method: Halitulin (2) was analyzed for C35H40N4O4 by HREIMS (m/z 580.3054, 100% Δmmu−0.5) confirmed by positive and negative FABMS (m/z 581 and 579, respectively). […] The duplicated part, according to the integration of the proton signals, was determined to be the aromatic portion of the molecule. Comparing the NMR data of the aliphatic part of 2 (Table 1) with haliclorensin (1)^7, together with the COSY, TOCSY, and HMBC data, established their identity. The incorporation of 1 in halitulin was further supported by the two MS fragments at m/z 168 (C11H22N+, 48%) and m/z/399 (MW^+-C12H24N, 90%), resulting from the preferable αβ to the aliphatic nitrogen-atoms^1 fragmentation at C-13,14 and C-12,13 respectively. Determination of the haliclorensin moiety in 2 left C22H14N3O4 (including the adjoining N-atom) with 17 degrees of unsaturation to be accounted for. […] Indeed, acetylation of 2, with a 1:1 mixture of Ac2O/pyridine, overnight at room temperature., afforded a very unstable tetra phenol acetate (3), on the basis of the HREIMS which gave the suitable molecular ion and also four subsequential losses of 42 mass units, and no loss of 60 mass units^13. The four phenol acetate groups were in full agreement with the 1773 cm^−1 IR absorption and the new methyls in the proton NMR. […]

[4] = system: A-549 human lung carcinoma; test: Cytotoxicity screening against A-549 cell culture; type: cell-based; settings: A-549 cells, three days of incubation, Crystal Violet
Excerpt: as §1, §2, §3

[5] = system: P-388 murine leukemia; test: Cytotoxicity screening against P-388 cell culture; type: cell-based; settings: Mus musculus, P388; P-388 cells, approximate IC50 from growth vs control wells
Excerpt: as §1, §2
P-388 cells were seeded into 16 mm wells at 1×10^4 cells per well in 1 ml aliquots of MEM 5FCS containing the indicated concentration of drug. A separate set of cultures without drug was seeded as control growth to ensure that cells remained in exponential phase of growth. All a 98% humid atmosphere, an approximately IC50 was determined by comparing the growth in wells with drug to the growth in wells control.

[6] = Cytotoxic activity, test not specified; type: cell-based; settings: qualitative statement, cell line not given

With CC1CCCCCCCN(CCCn2cc(-c3cc(O)c(O)c4ncccc34)c(-c3cc(O)c(O)c4ncccc34)c2)C1 (centres unmarked) [Halitulin, halitulin] as the compound, how does the IC50 [1] read?
Its IC50 is 0.0125 µg/mL (≈ 0.0215 µM).

What about the IC50 ([1]; Homo sapiens, HT-29, 72 h, read-out: IC50) of the same compound?
Its IC50 is 0.012 µg/mL (≈ 0.0207 µM).

And the IC50 [2]?
Its IC50 is 0.025 µg/mL (≈ 0.043 µM).

And the “stability to light and air” value [3]?
The value was “sensitive to light and air”.

What about the IC50 [4] of the same compound?
The IC50 was 0.0125 µg/mL (≈ 0.0215 µM).

What about the IC50 ([4]; Homo sapiens, A549, 72 h, read-out: IC50) of the same compound?
The IC50 was 0.012 µg/mL (≈ 0.0207 µM).

What about the IC50 [5] of the same compound?
Its IC50 is 0.025 µg/mL (≈ 0.043 µM).

Which cytotoxic activity [6] does the source give for CC1CCCCCN(CCCN)C1 (centres unmarked) [haliclorensin, N-(3′-arninopropyl)-3-methylazacyclodecane] here?
Its cytotoxic activity is “inactive”.
